This note sets out measurements from US6395787B1, “Ocular hypotensive lipids” (Allergan Sales, Inc., priority 2000, dated 2002).

The test system of assay [1] is isolated guinea pig vas deferens (EP3 receptor subtype). As to the kind of experiment: Inhibition of field stimulated contraction of isolated guinea pig vas deferens. As to the method:
(§1) Smooth muscle tension of isolated tissues was measured isometrically with force displacement transducers (Grass FT-03) and recorded on Grass Polygraphs (Models 7G and 79E). The organ baths contained Krebs solution maintained at 37° C. and gassed with 95% 02/5% CO2 to give a pH of 7.4. The Krebs solution had the following composition (mM): NaCl, 118.0; KCl, 4.7; KH2PO4, 1.2; CaCl2, 1.9; MgSO4, 1.18; NaHCO3, 25.0; glucose, 11.7; indomethacin, 0.001.
Activity at the prostaglandin-sensitive EP3 receptor subtype was also determined by the ability of prostanoids to inhibit the smooth muscle twitch response stimulated by an electrical current in the isolated guinea pig vas deferens. 1.5 cm portions of the guinea pig vas deferens were suspended under 1 g initial tension and allowed to equilibrate for at least 30 minutes. Tissues were then subjected to stimulation every 30 seconds by 20 volt electrical pulses. After stabilization of the twitch response, a standard dose response curve to PGE2 was performed in a cumulative fashion. Test compounds were then evaluated by performing a cumulative dose response curve. Tissues were washed-out and allowed to equilibrate for 1 hr between compounds. PGE2 was once again evaluated at the conclusion of the experiment as a standard reference. Activity was calculated as the percent inhibition of the height of the muscle twitch response.

In assay [2] the test system is isolated chick ileum (EP3 receptor preparation). As to the kind of experiment: Isolated chick ileum contraction. The conditions noted are these: compared to prostaglandin E2, 10^−6 M. As to the method: as §1
The chick ileum is an EP3 receptor preparation. Portions of the chick ileum of 1.5 cm length were suspended under 1 g of tension. After a one hour equilibration period, a standard dose-response curve for PGE2 was obtained in a non-cumulative fashion with 30 minute wash-out periods between individual doses. Subsequently, test compound was added non-cumulatively. A maximal dose of PGE2 (10^−6 M) was finally given to serve as a second reference standard. Contractile activity at each concentration was then calculated as a % of the maximal PGE2 response reached at a 10^−6 M concentration.

For a further assay, the system named is dog pupil diameter. Description: Dog pupil diameter. In kind it is in vivo. The conditions noted are these: 0.1%; for Pupil diameter (mm), test eye: n = 6. The procedure:
Dog pupil diameter was measured using an optistick (a mm ruler which included half-circle references of standard widths (mm) for reference. Gently restraining the dog by hand, pupil diameter was determined by matching a half-circle to the pupil in normal room light. In dogs with very dark pupils a specialized penlight was used, but only very briefly to avoid pupil constriction. Pupil diameter was measured at the same time as IOP and hyperemia.

Assay [3] concerns the target T1, human FP receptor (Homo sapiens, UniProt P43088). Description: Radioligand binding competition vs 3H-17-phenyl PGF2α, recombinant human FP receptor. Set-up: expressed in transfected cells. The conditions noted are these: for % specific binding mean χ ± SEM: vs 5nM 3H-17-phenyl PGF2α, n = 3. As to the method: Plasma membrane preparations of HEK 293 cells stably transfected with the human or feline FP receptor were obtained as follows. Cells washed with TME buffer were scraped from the bottom of the flasks and homogenized for 30 sec using a Brinkman PT 10/35 polytron. TME buffer was added as necessary to achieve a 40 ml volume in the centrifuge tubes. TME is comprised of 100 mM TRIS base, 20 mM Mg Cl2, 2 m EDTA; physiological pH is achieved by adding 10 N HCl. The cell homogenate was centrifuged at 19,000 rpm for 20 min at 4-6° C. using a Beckman Ti-60 rotor. The pellet was then resuspended in TME buffer to provide a final protein concentration of 1 mg/ml, as determined by Biorad assay. Radioligand binding assays were performed in a 200 μl volume.
Incubations were for 60 min at 25° C. and were terminated by the addition of 4 ml of ice-cold 50 mM TRIS-HCl followed by rapid filtration through Whatman GF/B filters and three additional 4 ml washes in a cell harvester (Brandel).

The target in assay [4] is T1, human FP receptor. As to the kind of experiment: Ca2+ signal in CRL 1497 cells. In kind it is cell-based. The arrangement: endogenous in cells; host or cells: CRL 1497 human dermal fibroblasts; Δ[Ca^2+]i mean χ ± SEM: unit not given here. The conditions noted are these: for Δ[Ca^2+]i mean χ ± SEM: n = 4. The procedure: Human CRL 1497 cells were plated in culture flasks and fed Dulbecco's modified Eagle's medium (DMEM) containing 10% fetal calf serum, 2 mM 1-glutamine, and 0.05 mg/ml gentacin (all purchased from Gibco, Grand Island, N.Y.). Cell cultures were maintained in a humidified atmosphere of 95% air, 5% CO2 and grown to confluency. Cells were removed from the culture flasks by approximately 1 min treatment with trypsin 0.05%/0.53 mM EDTA in Hanks Balanced Salt Solution (HBSS, Gibco, Grand Island, N.Y.) at 37° C. Proteolytic activity was arrested by adding 5 ml of 10% fetal bovine serum in DMEM. The cells were consecutively washed in Hank's BSS and medium containing 140 mM NaCl, […], 1 mM MgCl2, 1.5 mM CaCl2, 10 mM HEPES: TRIS, 5 mM glucose, 5 mM Na pyruvate, 0.1% bovine serum albumin at pH 7.4: Centrifugation for the washes was performed for 15 minutes at 200 g at room temperature. Cells were counted, resuspended in the above medium and incubated with 2×10^−6 M Fura 2/acetoxymethyl ester in a shaking water bath for 30 minutes at 37° C. The cells were subsequently washed in medium as above and resuspended at a concentration of 2×10^6 cells ml^−1. Aliquots of 0.5 ml cell suspension were then added to autocap microtubes to provide 10^6 cells per experimental determination of intracellular free Ca^2+ concentration ([Ca^2+]i).
Fluorescence was measured in a Perkin-Elmer LS-5 fluorescence spectrophotometer at excitation and emission wavelengths of 340 and 492 nm, respectively, with both slits at 10 nm. For each experimental determination 10^6 cells were washed (200×g for 5 min) and suspended in a 2 ml cuvette with buffer containing 120 mM NaCl, 6 mM KCl, 1 mM MgSO4, 1.5 mM CaCl2, 20 mM HEPES, 1 mg ml^−1 glucose and 1 mg ml^−1 Na pyruvate. Stirring was achieved by an overhead-mounted, paddle stirrer with the temperature maintained at 37° C. The cells were lysed with digitonin (10 μl of 100 mg ml^−1 DMSO) to obtain fmax. EGTA (100 mM) and sufficient 10N NaOH to adjust the pH to 8.5 were then successively added to obtain fmin.

T1 sequence (P43088 whole entry): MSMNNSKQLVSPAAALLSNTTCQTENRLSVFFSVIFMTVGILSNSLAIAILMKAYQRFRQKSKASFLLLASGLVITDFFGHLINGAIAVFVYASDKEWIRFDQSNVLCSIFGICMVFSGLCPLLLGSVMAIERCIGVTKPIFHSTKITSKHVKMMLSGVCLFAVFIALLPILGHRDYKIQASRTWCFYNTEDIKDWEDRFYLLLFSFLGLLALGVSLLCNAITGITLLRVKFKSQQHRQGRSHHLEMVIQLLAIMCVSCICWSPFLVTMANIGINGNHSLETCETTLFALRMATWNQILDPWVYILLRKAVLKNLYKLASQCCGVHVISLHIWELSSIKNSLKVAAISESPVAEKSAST

Consider `CCCCC[C@H](O)/C=C/[C@@H]1[C@@H](C/C=C\CCCC(=O)NCCO)[C@@H](O)C[C@H]1O` [PGF2α 1-ethanolamide, (5Z,8α,9α,11α,13E,15S)-9,11,15-trihydroxy-N-(2-hydroxyethyL)prosta-5,13-dien-1-amide], for which, in assay [1], the “inhibiting field stimulation evoked contraction” value was “modestly effective”. Also, in assay [2], the “effect on the isolated chick ileum” value is “weak partial agonist”. Also, the “Pupil diameter (mm), test eye” value in the assay with dog pupil diameter (0 HR (baseline)) is given as 6.7 ± 0.2 mm; in the assay with dog pupil diameter (2 HR), 1.0 ± 0.4 mm; in the assay with dog pupil diameter (4 HR), 1.0 ± 0.3 mm; in the assay on dog pupil diameter (6 HR), 1.5 ± 0.4 mm; with dog pupil diameter (24 HR), 7.0 ± 0.3 mm. The miosis result in the assay on dog pupil diameter (topical) is “marked miosis”. Moreover, the “% specific binding mean χ ± SEM” value at human FP receptor [3] (10^−5 M) worked out at 19.7 ± 1.2%; on human FP receptor [3] (10^−6 M) it was 63.7 ± 2.7%; at human FP receptor [3] (10^−7 M), 95.9 ± 1.5%; on human FP receptor [3] (10^−8 M), 103.3 ± 0.3%; at human FP receptor [3] (10^−9 M) it was 94.7 ± 1.4%. For the same compound, at human FP receptor [3] (read-out: I.C.50, radioligand binding), the IC50 was 2.02 µM. The “Δ[Ca^2+]i mean χ ± SEM” value on human FP receptor [4] (10^−5 M, CRL 1497 cells) was 97.9 ± 10.8; at human FP receptor [4] (10^−6 M, CRL 1497 cells), 45.8 ± 11.5; at human FP receptor [4] (10^−7 M, CRL 1497 cells) it was 13.5 ± 3.9; on human FP receptor [4] (10^−8 M, CRL 1497 cells), 3.4 ± 1.5. In addition, the “difference in potency at the human FP receptor vs PGF2α” value at human FP receptor [4] (CRL 1497 cells, Ca2+ signal) was “about a one hundred fold difference in potency”. The EC50 on human FP receptor [4] (CRL 1497 human dermal fibroblasts, read-out: E.C.50, Ca2+ signal) was found to be 1.59 µM.
